Several values for one entry are separate records, joined by “and”; a condition that tells them apart may be missing. Equal values may be shown once.
Experiments:
human NK(1) receptor = human NK(1) receptor (Homo sapiens, UniProt P25103); details: cited from earlier work
humans = details: oral and/or intravenous 10, 25, 50, and 100 mg/kg body weight; cited from earlier work
[1] = 400 mg daily tablets; cited from earlier work
[2] = cited from earlier work
[3] = tested on: isolated guinea-pig mesenteric artery; test: Isolated guinea-pig mesenteric artery relaxation (pressure myograph, videomicroscopy); details: for relaxation of isolated intact mesenteric artery: AVP-constricted, 0.001 to 1 mM luminal or abluminal; for abluminal versus luminal relaxation: intact artery, adenosine: at 10 μM and 100 μM
Procedure: Male guinea pigs (250-300 g) were anesthetised and placed in a cradle and the abdomen opened. Second order mesenteric artery branches were isolated and mounted in a pressure myograph (see FIG. 4) under constant pressure of 60 mmHg and perfusion (luminal flow) of 100 uL/min with Krebs-Henseleit buffer (37° C.). Artery diameter was continuously measured using videomicroscopy (see FIG. 4). For the relaxation/vasodilation experiments arteries were equilibrated and then constricted with 10^−8 M arginine vasopressin (AVP). Adenosine, lidocaine or adenosine-lidocaine together were administered 2) luminally and 2) abluminally and concentration curves were obtained. Stock solutions of adenosine and lidocaine alone or adenosine-lidocaine combined were made in deionized water to 20 mM. A range of volumes were pipetted to provide contact concentrations with the vessel lumen or outer wall that ranged from 0.001 to 1 mM. At the end of experiments, arteries were dilated using calcium-free solution to obtain 100% relaxation. A number of arteries were denuded by introducing 5 ml air into the lumen with flow rate 1000 μl/min. The air outflow was then clamped until the intraluminal pressure reached 70 mmHg, flow rate was reduced to 2 μl/min and the vessel remained pressurized for 10 minutes

human NK(1) receptor, sequence (P25103 whole entry): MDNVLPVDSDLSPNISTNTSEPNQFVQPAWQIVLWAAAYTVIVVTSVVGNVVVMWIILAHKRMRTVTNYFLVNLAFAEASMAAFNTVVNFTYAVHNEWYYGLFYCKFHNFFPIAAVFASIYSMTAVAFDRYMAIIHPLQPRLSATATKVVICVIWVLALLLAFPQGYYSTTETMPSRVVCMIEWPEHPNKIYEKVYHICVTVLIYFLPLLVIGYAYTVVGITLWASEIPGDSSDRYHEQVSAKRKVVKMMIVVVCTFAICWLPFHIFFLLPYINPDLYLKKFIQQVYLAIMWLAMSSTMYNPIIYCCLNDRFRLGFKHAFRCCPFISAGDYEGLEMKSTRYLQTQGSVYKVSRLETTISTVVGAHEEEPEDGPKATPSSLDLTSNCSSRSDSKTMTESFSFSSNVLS

Compound	relaxation of isolated intact mesenteric artery [3]	relaxation of mesenteric artery ([3]; endothelium absent (denuded))	relaxation of mesenteric artery ([3]; endothelium present)	abluminal versus luminal relaxation [3]	further results
Cc1cccc(C)c1NC(=O)C[C@H]1CCN(C(=O)c2cc(C(F)(F)F)cc(C(F)(F)F)c2)[C@@H](Cc2ccccc2)C1.O=C(O)C[C@H](O)C(=O)O (relative stereo) [R116301, (2R-trans)-4-[1-[3,5-bis(trifluoromethyi)benzoyl]-2-(phenylmethyl)-4-piperidinyl]-N-(2,6-dimethylphenyl)-1-acetamide (S)-Hydroxybutanedioate]					selectivity toward NK(2) and NK(3) receptors (human NK(1) receptor): over 200 fold; Ki (human NK(1) receptor; human NK(1) receptor): 450 pM
NC(=O)c1ncn([C@@H]2O[C@H](CO)[C@@H](O)[C@H]2O)c1N [Acadesine, 5-amino-4-imidazole carboxamide ribonucleoside]					safety in humans (humans): safe in humans
OCCN(CCO)c1nc(N2CCCCC2)c2nc(N(CCO)CCO)nc(N3CCCCC3)c2n1 [Dipyridamole]					plasma level [1]: about 0.4 μg/ml and 0.8 μM
Nc1ncnc2c1ncn2[C@@H]1O[C@H](CO)[C@@H](O)[C@H]1O [adenosine]	increased relaxation	relaxed the mesenteric artery in a dose dependent manner	relaxed the mesenteric artery in a dose dependent manner	significantly more relaxation	half life in the blood [2]: about 10 seconds
CCN(CC)CC(=O)Nc1c(C)cccc1C [lidocaine]	failed to produce relaxation	relaxed the artery	did not significantly change mesenteric artery diameter	no significant difference	

From patent publication US20160158280A1, “A METHOD FOR ORGAN ARREST, PROTECTION AND PRESERVATION AND REDUCING TISSUE INJURY” (priority 2013, published 2016)
